Measurements published in US6737383B1, “Herbicidal oxadiazolidines” (priority 1999, dated 2004).

Legend:
[1] = tested on: bedstraw; assay: Test B pre/postemergence bedstraw; format: in vivo, Galium aparine
Summary of the method: (§1)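 Test chemicals in a non-phytotoxic solvent mixture with surfactant were sprayed preemergence onto planted seeds and postemergence onto plants 2 to 18 cm tall (1- to 4-leaf stage). After twelve to sixteen days in a greenhouse, injury was visually rated against untreated controls from 0 (no effect) to 10 (complete control).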

[2] = tested on: blackgrass; assay: Test B pre/postemergence blackgrass; format: in vivo, Alopecurus myosuroides
Summary of the method: as §1

[3] = tested on: surinam grass; assay: Test B pre/postemergence surinam grass; format: in vivo, Brachiaria decumbens
Summary of the method: as §1

[4] = tested on: corn; assay: Test B pre/postemergence corn; format: in vivo, Zea mays
Summary of the method: as §1

[5] = tested on: giant foxtail; assay: Test B pre/postemergence giant foxtail; format: in vivo, Setaria faberii
Summary of the method: as §1

[6] = tested on: morningglory; assay: Test B pre/postemergence morningglory; format: in vivo, Ipomoea hederacea
Summary of the method: as §1

[7] = tested on: pigweed; assay: Test B pre/postemergence pigweed; format: in vivo, Amaranthus retroflexus
Summary of the method: as §1

[8] = tested on: rape; assay: Test B pre/postemergence rape; format: in vivo, Brassica napus
Summary of the method: as §1

[9] = tested on: soybean; assay: Test B pre/postemergence soybean; format: in vivo, Glycine max
Summary of the method: as §1

[10] = tested on: sugar beet; assay: Test B pre/postemergence sugar beet; format: in vivo, Beta vulgaris
Summary of the method: as §1

[11] = tested on: velvetleaf; assay: Test B pre/postemergence velvetleaf; format: in vivo, Abutilon theophrasti
Summary of the method: as §1

[12] = tested on: purple nutsedge; assay: Test B pre/postemergence purple nutsedge; format: in vivo, Cyperus rotundus
Summary of the method: as §1

[13] = tested on: rice; assay: Test B flood test rice; format: in vivo, Oryza sativa
Summary of the method: (§2)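 Flood test on plants grown to the 2-leaf stage; treated plants kept in greenhouse twelve to sixteen days, then visually rated against controls on a 0 (no effect) to 10 (complete control) scale.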

[14] = tested on: smallflower flatsedge; assay: Test B flood test smallflower flatsedge; format: in vivo, Cyperus difformis
Summary of the method: as §2

[15] = tested on: duck salad; assay: Test B flood test duck salad; format: in vivo, Heteranthera limosa
Summary of the method: as §2

[16] = tested on: bamyardgrass; assay: Test B flood test barnyardgrass; format: in vivo, Echinochloa crus-galli
Summary of the method: as §2

[17] = Preemergence, Rate 62 g/ha, scale of 0 to 10 where 0 is no effect and 10 is complete control
[18] = Preemergence, Rate 125 g/ha, 0 is no effect, 10 is complete control
[19] = Preemergence, Rate 250 g/ha, scale 0 to 10, 0 is no effect, 10 is complete control
[20] = Preemergence, Rate 500 g/ha, scale of 0 to 10 where 0 is no effect and 10 is complete control
[21] = Rate 62 g/ha, Postemergence, scale of 0 to 10 where 0 is no effect and 10 is complete control
[22] = Rate 125 g/ha, Postemergence, scale 0 to 10
[23] = Rate 500 g/ha, Postemergence, scale 0 to 10
[24] = Rate 62 g/ha, headed Pre-emergence (flood test species), scale 0 to 10 (0 no effect, 10 complete control)
[25] = Rate 125 g/ha, Pre-emergence, flood test species, scale 0 to 10 where 0 is no effect and 10 is complete control
[26] = Rate 250 g/ha, Pre-emergence, flood-test species, scale 0 to 10, 0 is no effect, 10 is complete control
[27] = Rate 500 g/ha, headed Pre-emergence (flood test species), scale 0 to 10 (0 no effect, 10 complete control)

Cc1ccccc1-n1c(=O)on(C(=O)N(c2ccc(S(C)(=O)=O)cc2)C(C)C)c1=O [Compound 203]
0: Bedstraw plant response rating [1, 17] | Bedstraw plant response rating (0 to 10 scale) [1, 18] | Bedstraw plant response rating [1, 19] | Plant response rating, Bedstraw [1, 20] | Bedstraw plant response rating [1, 21] | Bedstraw plant response rating [1, 22] | Plant response rating (0 to 10; 0 is no effect, 10 is complete control), Bedstraw ([1]; Rate 250 g/ha, Postemergence) | Bedstraw plant response rating [1, 23] | Blackgrass plant response rating [2, 17] | Blackgrass plant response rating (0 to 10 scale) [2, 18] | Blackgrass plant response rating [2, 19] | Plant response rating, Blackgrass [2, 20] | Blackgrass plant response rating [2, 21] | Blackgrass plant response rating [2, 22] | Plant response rating (0 to 10; 0 is no effect, 10 is complete control), Blackgrass ([2]; Rate 250 g/ha, Postemergence) | Blackgrass plant response rating [2, 23] | B. signalgrass plant response rating [3, 17] | B. signalgrass plant response rating (0 to 10 scale) [3, 18] | B. signalgrass plant response rating [3, 19] | Plant response rating, B. signalgrass [3, 20] | B. signalgrass plant response rating [3, 21] | B. signalgrass plant response rating ([3]; Rate 125 g/ha, Postemergence, scale 0 (no effect) to 10 (complete control)) | Plant response rating, B. signalgrass ([3]; Rate 250 g/ha, Postemergence, scale 0 to 10, 0 is no effect, 10 is complete control) | B. signalgrass plant response rating ([3]; Rate 500 g/ha, Postemergence, scale 0 to 10, 0 no effect, 10 complete control) | Corn plant response rating [4, 17] | Corn plant response rating (0 to 10 scale) [4, 18] | Corn plant response rating [4, 19] | Plant response rating, Corn [4, 20] | Corn plant response rating [4, 21] | Corn plant response rating [4, 22] | Plant response rating (0 to 10; 0 is no effect, 10 is complete control), Corn ([4]; Rate 250 g/ha, Postemergence) | Corn plant response rating [4, 23] | Giant foxtail plant response rating [5, 17] | Giant foxtail plant response rating (0 to 10 scale) [5, 18] | Giant foxtail plant response rating [5, 19] | Plant response rating, Giant foxtail [5, 20] | Giant foxtail plant response rating [5, 21] | Giant foxtail plant response rating [5, 22] | Plant response rating (0 to 10; 0 is no effect, 10 is complete control), Giant foxtail ([5]; Rate 250 g/ha, Postemergence) | Giant foxtail plant response rating [5, 23] | Morningglory plant response rating [6, 17] | Morningglory plant response rating (0 to 10 scale) [6, 18] | Morningglory plant response rating [6, 19] | Plant response rating, Morningglory [6, 20] | Morningglory plant response rating [6, 21] | Morningglory plant response rating [6, 22] | Plant response rating (0 to 10; 0 is no effect, 10 is complete control), Morningglory ([6]; Rate 250 g/ha, Postemergence) | Morningglory plant response rating [6, 23] | Redroot pigweed plant response rating [7, 17] | Redroot pigweed plant response rating (0 to 10 scale) [7, 18] | Redroot pigweed plant response rating [7, 19] | Plant response rating, Redroot pigweed [7, 20] | Redroot pigweed plant response rating [7, 21] | Redroot pigweed plant response rating [7, 22] | Plant response rating (0 to 10; 0 is no effect, 10 is complete control), Redroot pigweed ([7]; Rate 250 g/ha, Postemergence) | Redroot pigweed plant response rating [7, 23] | Rape plant response rating [8, 17] | Rape plant response rating (0 to 10 scale) [8, 18] | Rape plant response rating [8, 19] | Plant response rating, Rape [8, 20] | Rape plant response rating [8, 21] | Rape plant response rating [8, 22] | Plant response rating (0 to 10; 0 is no effect, 10 is complete control), Rape ([8]; Rate 250 g/ha, Postemergence) | Rape plant response rating [8, 23] | Soybean plant response rating [9, 17] | Soybean plant response rating (0 to 10 scale) [9, 18] | Soybean plant response rating [9, 19] | Plant response rating, Soybean [9, 20] | Soybean plant response rating [9, 21] | Soybean plant response rating [9, 22] | Plant response rating (0 to 10; 0 is no effect, 10 is complete control), Soybean ([9]; Rate 250 g/ha, Postemergence) | Soybean plant response rating [9, 23] | Sugarbeets plant response rating [10, 17] | Sugarbeets plant response rating (0 to 10 scale) [10, 18] | Sugarbeets plant response rating [10, 19] | Plant response rating, Sugarbeets [10, 20] | Sugarbeets plant response rating [10, 21] | Sugarbeets plant response rating [10, 22] | Plant response rating (0 to 10; 0 is no effect, 10 is complete control), Sugarbeets ([10]; Rate 250 g/ha, Postemergence) | Sugarbeets plant response rating [10, 23] | Velvetleaf plant response rating [11, 17] | Velvetleaf plant response rating [11, 19] | Plant response rating, Velvetleaf [11, 20] | Velvetleaf plant response rating [11, 21] | Velvetleaf plant response rating [11, 22] | Plant response rating (0 to 10; 0 is no effect, 10 is complete control), Velvetleaf ([11]; Rate 250 g/ha, Postemergence) | Nutsedge plant response rating [12, 17] | Nutsedge plant response rating (0 to 10 scale) [12, 18] | Nutsedge plant response rating [12, 19] | Plant response rating, Nutsedge [12, 20] | Nutsedge plant response rating [12, 21] | Nutsedge plant response rating [12, 22] | Plant response rating (0 to 10; 0 is no effect, 10 is complete control), Nutsedge ([12]; Rate 250 g/ha, Postemergence) | Nutsedge plant response rating [12, 23] | Rice plant response rating [13, 24] | Rice plant response rating [13, 25] | Rice plant response rating [13, 26] | Plant response rating, Rice [13, 27] | S. Flatsedge plant response rating [14, 24] | S. Flatsedge plant response rating [14, 25] | S. Flatsedge plant response rating [14, 26] | S. Flatsedge plant response rating ([14]; Rate 500 g/ha, Pre-emergence, flood test species, scale 0 to 10 (0 no effect, 10 complete control)) | Ducksalad plant response rating [15, 24] | Ducksalad plant response rating [15, 25] | Ducksalad plant response rating [15, 26] | Plant response rating, Ducksalad [15, 27] | Barnyardgrass plant response rating [16, 24] | Barnyardgrass plant response rating [16, 25] | Barnyardgrass plant response rating [16, 26] | Plant response rating, Barnyardgrass [16, 27]
